Test results from patent publication US6491922B1, “Methods and compounds for treating autoimmune and vascular disease” (Cornell Research Foundation, Inc., priority 1996, dated 2002).
Where “and” joins values, the source holds several entries; their conditions need not be identical. Equal entries are not always repeated. Entries after “also recorded” stand apart in the source; their conditions may differ. Where two headings read alike, the source gives them in different places.

Assays:
TNF-α mRNA = TNF-α mRNA expression and stability after endotoxin; format: cell-based, human
IL-1β transcription = assay: In vitro transcription by nuclear run-off assay, IL-1β; format: cell-based, human; settings: THP-1 nuclei; 2 μM LPG 2 h, LPS 2 μg/ml 4 h
Experimental: Nuclei isolation. Procedures for isolating nuclei have been described in Ausubel, F. M. et al., Current Protocols in Molecular Biology 1(4.9):4.9.1-4.9.14 and 1(4.10):4.10.1-4.10.11 (1993), hereby incorporated by reference. THP-1 cells (5×10^7 cells) treated with medium or medium containing 2 μM LPG for 2 h were stimulated or not stimulated with 2 μg/ml LPS for 4 h, at 37° C. in 5% CO2. Cells were harvested by gentle scraping, washed twice with 5 ml ice cold PBS and centrifugation at 350×g for 5 min. After removal of supernatant, cells were gently loosen by 5 sec vortex and 4 ml NP-40 buffer was added by continuous vortex. The NP-40 buffer is composed of 10 mM Tris HCl (pH 7.4), 10 mM NaCl, 3 mM MgCl2, and 0.5% noridet P-40 (NP-40). The cell suspension was further vortexed at half maximal speed for 10 sec and placed on ice for 5 min. Cells were visually inspected to ascertain the separation of nuclei from cytophasmic material. Nuclei were wash once more with 4 ml NP-40 buffer by centrifugation at 350×g, 5 min. The pelleted nuclei were resuspended with 200 μl glycerol buffer and stored in liquid nitrogen until nuclear run-off assay. Glycerol buffer is composed of 50 mM Tris Hcl (pH 8.3), 40% (v/v) glycerol, 5 mM MgCl2, 0.1 mM ethylenediaminetetraacetic acid (EDTA).
In vitro transcription. […]

[1] = tested on: HIV p24 antigen, ACH-2 cells; assay: HIV p24 antigen production in chronically HIV-infected ACH-2 cells; format: cell-based; settings: 72 h
Experimental: LPG, the major surface molecule of Leishmania, has macrophage deactivating functions. Based on the ability of LPG to suppress the generation of ROI and cytokine gene expression, we evaluated the potential that LPG may similarly suppress HIV production. FIGS. 27A-D illustrate the effect of 2 μM LPG pretreatment for 2 h on the induction HIV from chronically HIV-infected monocytic and T cell lines respectively, U1 and ACH-2 cells. LPG treatment of U1 cells for 72 h inhibited basal production of HIV p24 antigen at basal and induction in response to PMA, TNF-α and LPS by 90%, 82%, 60% and 66%, respectively (FIGS. 27A, B). The suppression of HIV p24 antigen production was time-dependent (FIG. 27B). […] The inhibition was also time-dependent. The results are the mean of 2 separate experiments and the SD was less than 10%.

IL-1β mRNA = assay: Northern analysis of IL-1β mRNA induction in peripheral blood monocytes; settings: 2 μM LPG pretreatment 2 h, N=2
From the text: Human peripheral blood cells from the New York Blood Center (New York, N.Y.) obtained by Hypaque-Ficoll density centrifugation and adherence to plastic are 99% monocytes. […] Human monocytic cells THP-1 (TIB-202) and plasmid containing glyceraldehyde-3-phosphate dehydrogenase [GAPDH] cDNA (cat. #57090) were obtained from American Type Culture Collection (ATCC), Rockville, MdD. […] RPMI-1640, fetal bovine serum, L-glutamine, and penicillin-streptomycin (Gibco, Grand Island, N.Y.); β-mercaptoethanol, phorbol 12-myristate 13-acetate (PMA) and LPS from Escherichia coli serotype 055: B5 were purchased from the Sigma Chemical Co., St. Louis, Miss.
Human monocytes were cultured in endotoxin free complete medium as previously described. […]
Cells treated with or without LPG and/or inducers of IL-1β were harvested by gentle scrapping using a rubber policeman and sedimented by centrifugation at 500 g for 5 minutes in a microfuge. Total RNA was extracted using RNA STAT-60 solution (TEL-TEST “B” Inc., Friendswood, Tex.), based on a single step method for RNA isolation (P. Chomczynski and N. Sacchi, “Single-step Method of RNA Isolation by Acid Guanidinium Thiocyanate-phenol-chloroform Extraction,” Anal. Biochem., 162:156-59 (1987), hereby incorporated by reference), and quantitated by spectrophotometry.

THP-1 cells = assay: LPG and LPG fragment binding to THP-1 cells (indirect immunofluorescence, FACS); design: species or system human; settings: LPG 1 μM
U1 and ACH-2 cells = assay: Cell viability and proliferation (bromo-deoxy-uridine incorporation) of HIV-infected cell lines; format: cell-based, human
IL-1β promoter = format: cell-based, human; settings: for suppression of endotoxin-induced CAT activity: LPG 2 μM 1 h; for suppression of LPS-induced CAT activity: 2 μM LPG 2 h

Substance: lipophosphoglycan [LPG]
- effect on endotoxin induction of TNF-α expression (TNF-α mRNA; LPG added 2 h after endotoxin): effective
- effect on endotoxin induction of TNF-α expression (TNF-α mRNA; LPG added 4 h prior to addition of endotoxin): significantly suppressed
- effect on TNF-α mRNA stability (TNF-α mRNA; actinomycin D, data not shown): minimal effect
- inhibition of LPS induced IL-1β mRNA transcription (IL-1β transcription): approximately 65%
- inhibition of HIV p24 antigen production in response to LPS ([1]; 2 μM LPG pretreatment 2 h): 69%
- inhibition of HIV p24 antigen production in response to PMA ([1]; 2 μM LPG pretreatment 2 h): 81%
- inhibition of HIV p24 antigen production in response to TNF-α ([1]; 2 μM LPG pretreatment 2 h): 88%
- inhibition of basal production of HIV p24 antigen ([1]; 2 μM LPG): 62%
- inhibition of LPS induction of IL-1β mRNA (IL-1β mRNA; LPS 2 μg/ml): greater than 90%
- inhibition of S. epidermidis induction of IL-1β mRNA (IL-1β mRNA): greater than 80%
- time at which LPG binding was obvious (THP-1 cells): 16 min
- LPG binding (THP-1 cells; 1 h): significant LPG was bound
- percentages of viable cells (U1 and ACH-2 cells; cells treated or not treated with LPG): 98%
- effect on cell proliferation (bromo-deoxy-uridine incorporation) (U1 and ACH-2 cells; each of the stimulation conditions): did not alter
- LPG's inhibitory activity on LPS-induced CAT activity (IL-1β promoter; IL-1β promoter deleted to −57): completely abrogated; also recorded: no LPG inhibitory activity
- suppression of CAT activity (IL-1β promoter; IL-1β promoter truncated to −131): 7%+1% and 7%
- suppression of endotoxin-induced CAT activity (IL-1β promoter; deletional mutant X2-HT-CAT (−3757 to −2729 linked to −131 to +11)): 8%+4% and 8%
- suppression of endotoxin-induced CAT activity (IL-1β promoter; full-length −3757 to +11 construct (XT-CAT), n=5): 50%+5%
- effect on endotoxin-activation of IL-1β promoter activity in presence of serum (IL-1β promoter; medium with 2.5% or 5% FBS, LPG 2 μM 2 h, LPS 2 μg/ml): suppresses; also recorded: similar
- suppression of LPS-induced CAT activity (IL-1β promoter; plasmid with −310/+15 promoter sequence, LPS 2 μg/ml): approximately 40%
- suppression of LPS-induced CAT activity (IL-1β promoter; plasmid with −680/+15 promoter sequence, LPS 2 μg/ml): approximately 40%
- suppression of LPS-induced CAT activity (IL-1β promoter; plasmid with −1110/+15 promoter sequence, LPS 2 μg/ml): approximately 40%
